Common to all, as to assay type: biochemical
Test [1] relates to sensitive w/t form of EPSPS. The experiment in a line: EPSPS assays of plant extracts in the presence of glyphosate, sensitive w/t enzyme. The note with it: 0.1 mM N-(phosphonomethyl)glycine; 0.1 mM 14C-PEP; 0.75 mM shikimate-3-Pi. As to the method: (§1) Assays are carried out generally according to the radiochemical method of Padgette et al 1987 (Archives of Biochemistry and Biophysics, 258(2) 564–573) with K+ions as the major species of cationic counterion. Assays in a total volume of 50 μl, in 50 mM Hepes(KOH) pH 7.0 at 25° C., contain purified enzyme or plant extract (see below) diluted appropriately in Hepes pH 7.0 containing 10% glycerol, and 5 mM DTT, ^14C PEP either as variable-substrate (for kinetic determinations) or fixed at 100 or 250 μM and shikimate 3 Phosphate (K+ salt) at 0.75 or 2 mM as indicated. Optionally, for assays of crude plant extracts, assays also contain 5 mM KF and/or 0.1 mM ammonium molybdate. Assays are started with the addition of ^14C phosphoenolpyruvate (cyclohexylammonium+salt) and stopped after 2–10 minutes (2 minutes is preferable) with the addition of 50 μl of a solution of 1 part 1M acetic acid and 9 parts ethanol. […] Apparent Km and Vmax values are determined by least squares fit to a hyperbola with simple weighting using the Grafit 3.09b from Erithacus Software Ltd. Km values are generally ascertained using 8–9 concentrations of variable substrate ranging from Km/2–10 Km and triplicate points. […]

In another test the test system is resistant forms of EPSPS. The experiment in a line: EPSPS assays of plant extracts in the presence of glyphosate, resistant enzyme. The note with it: 0.1 mM N-(phosphonomethyl)glycine; 0.1 mM 14C-PEP; 0.75 mM shikimate-3-Pi; estimated. As to the method:
as §1

Test [2] has as its target T1, mutant Brassica napus EPSPS (Brassica napus, UniProt P17688, P178S/T174I).
T1 construct: The mature mutant Brassica napus EPSPS protein is purified; initiating Met (N); made in house; host or cells: E. coli BL21 (DE3) RP, vector pET24a
Kind of test: Radiochemical EPSPS assay of purified mutant Brassica napus EPSPS. The protocol: as §1, with “^14C PEP either as variable-substrate (for kinetic determinations) or fixed at 100 or 250 μM and shikimate 3 Phosphate” left out
The mature mutant Brassica napus EPSPS protein is purified at ˜4 C as follows. […] EPSPS-containing fractions detected on the basis of EPSPS enzyme activity are combined and loaded onto an xk16 column containing 20 ml of HP Q-Sepharose equilibrated with S200 buffer. […]

Where a name gives a salt, the structure may show the parent alone.

T1 sequence (P17688 73-516 T174I/P178S): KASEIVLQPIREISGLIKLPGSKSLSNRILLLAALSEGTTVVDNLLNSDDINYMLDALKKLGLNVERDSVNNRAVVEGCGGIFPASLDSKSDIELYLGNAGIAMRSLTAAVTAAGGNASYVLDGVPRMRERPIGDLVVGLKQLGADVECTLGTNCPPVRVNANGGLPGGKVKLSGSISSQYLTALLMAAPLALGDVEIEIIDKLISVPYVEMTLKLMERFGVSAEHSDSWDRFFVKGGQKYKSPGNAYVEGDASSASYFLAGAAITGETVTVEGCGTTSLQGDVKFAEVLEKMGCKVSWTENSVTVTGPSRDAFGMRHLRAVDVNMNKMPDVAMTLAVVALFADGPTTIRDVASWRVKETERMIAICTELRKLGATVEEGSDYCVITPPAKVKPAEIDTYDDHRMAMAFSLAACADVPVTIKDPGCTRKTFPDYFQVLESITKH

For the compound `O=C(O)CNCP(=O)(O)O` [N-(phosphonomethyl)glycine], in test [1], the “inhibition of sensitive w/t EPSPS” value is recorded as above 98%. For the same compound, in the test on resistant forms of EPSPS, the “inhibition of resistant forms of EPSPS” value was below 8.5%.

For `O=C(O)CNCP(=O)(O)O` [potassium salt of glyphosate], the IC50 in test [2] (at 40 μM PEP, 2 mM shikimate-3-Pi, purified enzyme, read-out: IC50 value for the potassium salt of glyphosate) is around 600 µM. The inhibition constant Ki in test [2] (purified mutant EPSPS, read-out: estimated Ki value for potassium glyphosate) was around 450 µM.

For orientation: IC50 means the concentration needed to halve the response being measured. A word on the Ki: it is a measure of affinity in units of concentration, obtained from inhibition or displacement.

(Values after patent US7169970B2, “Herbicide resistant plants” (priority 2000, dated 2007).)
